Test results as given in patent publication US20260062426A1, “CYCLIN DEPENDENT KINASE DEGRADERS AND METHODS OF USE THEREOF” (Differentiated Therapeutics Inc, priority 2023, published 2026).

Key:
Assay type in all cases: cell-based
[1] = target: T1, CDK9 (Homo sapiens, UniProt P50750); assay: CDK9 HIBIT PQ (protein quantification), degradation; conditions: for Dmax: Max = Maximum; for DC50: PQ = Protein Quantification
T1 construct: host or cells: HEK293
In short: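 HEK293 cells carrying HiBiT-tagged CDK9 were grown in DMEM with 10% FBS and seeded in 384-well plates at 1.6×10^5 cells/well in 50 uL, then incubated overnight at 37° C and 5% CO2. After compound treatment, CDK9 protein was measured with a HiBiT assay. High control was 0.1% DMSO-treated cells and low control was culture medium only. Maximal degradation, Dmax and DC50 were derived from these readings.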

[2] = target: T2, CDK2 (Homo sapiens, UniProt P24941); assay: CDK2 HIBIT PQ (protein quantification), degradation; conditions: for CDK2 HIBIT PQ Max (%): Max = Maximum; for DC50: PQ = Protein Quantification
T2 construct: host or cells: HEK293
In short: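 HEK293 cells bearing HiBiT-tagged CDK2 were cultured in DMEM containing 10% FBS, plated in 384-well plates at 1.6×10^5 cells/well in 50 uL, and kept overnight at 37° C and 5% CO2. Following 6 hours of compound exposure, each well received 20 μL of HiBiT reagent (Nano-Glo HiBiT lytic buffer, lytic substrate, LgBiT protein), and plates were shaken for 20 minutes at room temperature and then read on an EnVision, with 0.1% DMSO as the high control and medium only as the low control. DC50 and maximal degradation were calculated from these readings.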

[3] = target: T3, CCNE1 (Homo sapiens, UniProt P24864+P24941); assay: CCNE1 HIBIT PQ (protein quantification), degradation; conditions: for CCNE1 HIBIT PQ Max (%): Max = Maximum; for DC50: PQ = Protein Quantification
T3 construct: host or cells: HEK293
In short: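 For DC50 and maximal degradation, CCNE1 protein was quantified with a HiBiT assay in HEK293 cells carrying HiBiT-tagged CCNE1. Cells in EMEM with 10% FBS went into 384-well plates at 1.6×10⁵ cells/well in 50 uL, stayed overnight at 37° C and 5% CO₂, and then received compound for 6 hours. Readings were referenced to 0.1% DMSO-treated cells as the high control and culture medium only as the low control.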

T1 sequence (P50750 whole entry): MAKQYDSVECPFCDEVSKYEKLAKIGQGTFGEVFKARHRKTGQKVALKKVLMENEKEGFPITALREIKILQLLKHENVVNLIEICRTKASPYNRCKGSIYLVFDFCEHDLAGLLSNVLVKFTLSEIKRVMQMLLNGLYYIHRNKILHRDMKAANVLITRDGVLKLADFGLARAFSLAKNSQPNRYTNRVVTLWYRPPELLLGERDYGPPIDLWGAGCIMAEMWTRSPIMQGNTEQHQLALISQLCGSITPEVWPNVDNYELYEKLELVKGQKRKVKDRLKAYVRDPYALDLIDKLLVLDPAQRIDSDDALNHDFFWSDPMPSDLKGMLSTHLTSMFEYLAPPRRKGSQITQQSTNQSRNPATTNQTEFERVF

Structure (SMILES) | Dmax [1] [%] | CDK2 HIBIT PQ Max (%) [2] [%] | DC50 [2] [nM] | CCNE1 HIBIT PQ Max (%) [3] [%] | DC50 [1] [nM] | DC50 [3] [nM]
CC(C)Oc1c(-c2cn[nH]c2)ncn2nc(Nc3ccc(S(=O)(=O)N4CCC[C@@H](CN5CC[C@@H](c6ccc7c(N8CCC(=O)NC8=O)nn(C)c7c6)CC5(C)C)C4)cc3F)nc12 (single isomer, unassigned) [Compound 105] | 25 | 63 | 0.9 | 24 | – | –
CC(C)Oc1c(-c2cn[nH]c2)ncn2nc(Nc3ccc(S(=O)(=O)N4CCCC(CN5CCN(c6ccc7c(N8CCC(=O)NC8=O)nn(C)c7c6)C6CC65)C4)cc3F)nc12 (stereo not drawn) [Compound 88] | 18 | 61 | 6.5 | 25 | – | –
CC(C)Oc1c(-c2cn[nH]c2)ncn2nc(Nc3ccc(S(=O)(=O)c4cccc(CC5CC(c6ccc(C(=O)NC7CCC(=O)NC7=O)cc6)C5)c4)cc3F)nc12 (racemic) [Compound 32, rac-N-[(3R)-2,6-dioxopiperidin-3-yl]-4-(3-{[3-(3-fluoro-4-{[8-isopropoxy-7-(1H-pyrazol-4-yl)-[1,2,4]triazolo[1,5-c]pyrimidin-2-yl]amino}benzenesulfonyl)phenyl]methyl}cyclobutyl)benzamide] | 62 | 89 | 78.1 | 62 | 396 | > 3000
CC(C)Oc1c(-c2cn[nH]c2)ncn2nc(NC3CCN(S(=O)(=O)c4cccc(CN5CCN(c6cc7c(cc6F)C(=O)N(C6CCC(=O)NC6=O)C7)CC5)c4)CC3)nc12 (racemic) [Compound 3] | 102 | 66 | 3.12 | 64 | 19.4 | 8.88
CC(C)Oc1c(-c2cn[nH]c2)ncn2nc(Nc3ccc(S(=O)(=O)N(C)CCCN4CCC(c5ccc6c(c5)n(C)c(=O)n6C5CCC(=O)NC5=O)CC4)c4ccoc34)nc12 (racemic) [Compound 53] | 67 | 87 | 0.2 | 61 | 2.64 | 0.74
CC(C)Oc1c(-c2cn[nH]c2)ncn2nc(Nc3ccc(S(=O)(=O)c4cccc(CN5C6CC5CN(c5ccc7c(N8CCC(=O)NC8=O)nn(C)c7c5)C6)c4)cc3F)nc12 [Compound 45] | -10 | 85 | 4.3 | 33 | – | –
CC(C)Oc1c(-c2cn[nH]c2)ncn2nc(Nc3ccc(S(=O)(=O)c4cccc(C[C@H]5C[C@H](c6ccc7c(c6)CN([C@H]6CCC(=O)NC6=O)C7=O)C5)c4)cc3F)nc12 (stereo in doubt) [Compound 82, (S)-3-(5-((1s,3S)-3-(3-((3-fluoro-4-((8-isopropoxy-7-(1H-pyrazol-4-yl)-[1,2,4]triazolo[1,5-c]pyrimidin-2-yl)amino)phenyl)sulfonyl)benzyl)cyclobutyl)-1-oxoisoindolin-2-yl)piperidine-2,6-dione] | 27 | 88 | 23.4 | 52 | – | 100
CC(C)Oc1c(-c2cn[nH]c2)ncn2nc(Nc3c(F)cc(S(=O)(=O)N(C)CCCN4CCC(c5ccc6c(c5)n(C)c(=O)n6C5CCC(=O)NC5=O)CC4)cc3F)nc12 (racemic) [Compound 58] | 86 | 94 | 0.1 | 86 | 1.51 | 0.39
CC(C)Oc1c(-c2cn[nH]c2)ncn2nc(Nc3ccc(S(=O)(=O)c4cccc(CN5CC(c6ccc7c(c6)CN(C6CCC(=O)NC6=O)C7=O)C5)c4)cc3F)nc12 (racemic) [Compound 12] | 8 | 89 | 2.2 | 62 | – | 4.06
CC(C)Oc1c(-c2cn[nH]c2)ncn2nc(Nc3ccc(S(=O)(=O)N4CCCC(CN5CCC(c6ccc7c(c6)n(C)c(=O)n7C6CCC(=O)NC6=O)CC5)C4)cc3F)nc12 (stereo not drawn) [Compound 72] | 71 | 88 | – | 64 | 0.5 | 0.17
CC(C)Oc1c(-c2cn[nH]c2)ncn2nc(Nc3ccc(S(=O)(=O)N4CCC5(CCCN5C5CCN(c6ccc7c(c6)n(C)c(=O)n7C6CCC(=O)NC6=O)CC5)C4)cc3F)nc12 (stereo not drawn) [Compound 37] | 51 | 84 | 2.9 | 30 | 43.7 | –
CC(C)Oc1c(-c2cn[nH]c2)ncn2nc(Nc3ccc(S(=O)(=O)c4cccc(C[C@H]5C[C@@H](c6ccc7c(N8CCC(=O)NC8=O)nn(C)c7c6)C5)c4)cc3F)nc12 [Compound 90, rel-1-(6-((1r,3s)-3-(3-((3-fluoro-4-((8-isopropoxy-7-(1H-pyrazol-4-yl)-[1,2,4]triazolo[1,5-c]pyrimidin-2-yl)amino)phenyl)sulfonyl)benzyl)cyclobutyl)-1-methyl-1H-indazol-3-yl)dihydropyrimidine-2,4(1H,3H)-dione] | 14 | 91 | 14.3 | 48 | – | –
CC(C)Oc1c(-c2cn[nH]c2)ncn2nc(N[C@H]3CCN(S(=O)(=O)c4cccc(CN5CCN(c6ccc7c(N8CCC(=O)NC8=O)nn(C)c7c6)CC5(C)C)c4)C[C@H]3C)nc12 [Compound 52] | 93 | 98 | 2.8 | 93 | 38.7 | 13.8
CC(C)Oc1c(-c2cn[nH]c2)ncn2nc(Nc3ccc(S(=O)(=O)c4cccc(CC5CC(c6ccc7c(c6)n(C)c(=O)n7[C@H]6CCC(=O)NC6=O)C5)c4)cc3F)nc12 (mixture of isomers) [Compound 31, (3S)-3-[5-(3-{[3-(3-fluoro-4-{[8-isopropoxy-7-(1H-pyrazol-4-yl)-[1,2,4]triazolo[1,5-c]pyrimidin-2-yl]amino}benzenesulfonyl)phenyl]methyl}cyclobutyl)-3-methyl-2-oxo-1,3-benzodiazol-1-yl]piperidine-2,6-dione] | 9 | 81 | 1.7 | 26 | – | –
CC(C)Oc1c(-c2cn[nH]c2)ncn2nc(Nc3ccc(S(=O)(=O)N4CCCC(CN5CCN(c6ccc7c(N8CCC(=O)NC8=O)nn(C)c7c6)C(C)C5)C4)cc3F)nc12 (stereo not drawn) [Compound 91] | 67 | 84 | 3.2 | 71 | 61.5 | 12.5
CC(C)Oc1c(-c2cn[nH]c2)ncn2nc(Nc3ccc(S(=O)(=O)N4CCCC(CN5CC(c6ccc7c(N8CCC(=O)NC8=O)nn(C)c7c6)C5)C4)cc3F)nc12 (racemic) [Compound 86] | 20 | 56 | 1.3 | 38 | – | –
CC(C)Oc1c(-c2cn[nH]c2)ncn2nc(Nc3ccc(S(=O)(=O)c4cccc(N5CCC6C5CN6c5ccc6c(c5)CN(C5CCC(=O)NC5=O)C6=O)c4)cc3F)nc12 (stereo not drawn) [Compound 34, 3-(5-{2-[3-(3-fluoro-4-{[8-isopropoxy-7-(1H-pyrazol-4-yl)-[1,2,4]triazolo[1,5-c]pyrimidin-2-yl]amino}benzenesulfonyl)phenyl]-2,6-diazabicyclo[3.2.0]heptan-6-yl}-1-oxo-3H-isoindol-2-yl)piperidine-2,6-dione] | 31 | 86 | 5.6 | 62 | – | 14.1
CC(C)Oc1c(-c2cn[nH]c2)ncn2nc(Nc3ccc(S(=O)(=O)N4CC5C4CCN5CC4CCN(c5cccc6c5n(C)c(=O)n6C5CCC(=O)NC5=O)CC4)cc3F)nc12 (stereo not drawn) [Compound 74] | 88 | 91 | 0.7 | 71 | 7.04 | 3.57
CC(C)Oc1c(-c2cn[nH]c2)ncn2nc(Nc3ccc(S(=O)(=O)c4cccc(CN5CC6(C5)CN(c5ccc7c(c5)CN(C5CCC(=O)NC5=O)C7=O)C6)c4)cc3F)nc12 (racemic) [Compound 10] | 54 | 86 | 3.76 | 60 | 25.5 | 10.6
CC(C)Oc1c(-c2cn[nH]c2)ncn2nc(Nc3ccc(S(=O)(=O)c4cccc(N5CCC(CN6CCN(c7ccc8c(c7)CN(C7CCC(=O)NC7=O)C8=O)CC6)CC5)c4)cc3F)nc12 (racemic) [Compound 22] | 97 | 93 | 1.7 | 71 | 16.1 | 10.9
CC(C)Oc1c(-c2cn[nH]c2)ncn2nc(Nc3ccc(S(=O)(=O)c4cccc(C[C@H]5C[C@@H](c6ccc7c(c6)CN([C@@H]6CCC(=O)NC6=O)C7=O)C5)c4)cc3F)nc12 (stereo in doubt) [Compound 79, (R)-3-(5-((1r,3S)-3-(3-((3-fluoro-4-((8-isopropoxy-7-(1H-pyrazol-4-yl)-[1,2,4]triazolo[1,5-c]pyrimidin-2-yl)amino)phenyl)sulfonyl)benzyl)cyclobutyl)-1-oxoisoindolin-2-yl)piperidine-2,6-dione] | 26 | 96 | 5.9 | 84 | – | 13.1
